# Where two headings read alike, the source gives them in different places.
# Experiments:
# human CB1 receptor = target: T1, human CB1 receptor (Homo sapiens, UniProt P21554); assay: In-vitro determination of efficacy and potency at the human CB1 receptor expressed in CHO cells (luciferase reporter); assay type: cell-based
# T1 construct: expressed in transfected cells; host or cells: CHO (Chinese Hamster Ovary) cells
# Mice = assay: Tail flick latency in mice; assay type: in vivo; conditions: Mus musculus, iv, administered intravenously, ED50 calculated at Tmax, read-out: ED50 (increase of tail flick latency)
# Method: Mice were trained to sit still in a tail flick apparatus (Ugo Basile, Italy) whilst tail flick latency was measured. The tail was exposed to a focused beam of radiant heat at a point approximately 2.5 cm from the tip. Tail flick latency was defined as the interval between the appliance of the thermal stimulus and withdrawal of the tail. A 12 second cut-off was employed to prevent tissue damage. Four groups of eight mice were treated with vehicle or one of three doses of the test compound, administered intravenously (vehicle: saline 9 g/l; injection volume 10 ml/kg). Tail flick latency was measured before administration of the test compound and at regular intervals (typically 20, 40 and 60 minutes) after compound administration. The ED50 was calculated at Tmax.
# [1] = CHO cells expressing the human CB1 receptor and a luciferase reporter gene, 5 hours incubation, read-out: pEC50 (converted)
# T1 sequence (P21554 whole entry): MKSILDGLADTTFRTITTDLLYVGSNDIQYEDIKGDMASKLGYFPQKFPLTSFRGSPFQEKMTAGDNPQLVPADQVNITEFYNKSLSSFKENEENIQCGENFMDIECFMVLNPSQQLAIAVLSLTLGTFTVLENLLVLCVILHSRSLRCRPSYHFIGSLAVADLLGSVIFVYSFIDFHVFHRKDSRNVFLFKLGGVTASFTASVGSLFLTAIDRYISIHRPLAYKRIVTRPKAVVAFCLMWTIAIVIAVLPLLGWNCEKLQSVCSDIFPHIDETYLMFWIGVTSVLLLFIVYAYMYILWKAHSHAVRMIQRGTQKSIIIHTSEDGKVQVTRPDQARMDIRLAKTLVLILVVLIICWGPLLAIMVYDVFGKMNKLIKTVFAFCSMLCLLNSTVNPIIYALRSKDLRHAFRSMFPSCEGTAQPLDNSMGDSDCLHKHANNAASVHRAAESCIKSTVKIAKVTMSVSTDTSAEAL
SMILES,EC50 (human CB1 receptor) [nM],EC50 (human CB1 receptor; [1]) [nM],ED50 (Mice) [µmol/kg]
"CCN1CCN(C(=O)c2cn(C(C)C3CCCCC3)c3ccccc23)CC1 (single isomer, unassigned; (+)) [(+)-5I, (+)-1-{[1-(1-Cyclohexylethyl)-1H-indol-3-yl]carbonyl)-4-ethylpiperazine]",79.4,,
"CCN1CCN(C(=O)c2cn(CC3CCCC3)c3c(OC)cccc23)CC1 [Example 2, 1-{[1-(Cyclopentylmethyl)-7-methoxy-1H-indol-3-yl]carbonyl}-4-ethylpiperazine]",316,,
"COc1cccc2c(C(=O)N3CCN(CCO)CC3)cn(CC3CCCCC3)c12 [Example 3C, 1-{[1-(Cyclohexylmethyl)-7-methoxy-1H-indol-3-yl]carbonyl}-4-(2-hydroxyethyl)piperazine]",,251,
"CCN1CCN(C(=O)c2cn(CC3CCCCC3)c3c(F)cccc23)CC1 [Example 5B, 1-{[1-(Cyclohexylmethyl)-7-fluoro-1H-indol-3-yl]carbonyl}-4-ethylpiperazine]",100,,
"CCN1CCN(C(=O)c2cn(CC3CC=CCC3)c3c(OC)cccc23)CC1 (centres unmarked) [Example 5Q, 1-{[1-(Cyclohex-3-enylmethyl)-7-methoxy-1H-indol-3-yl]carbonyl}-4-ethylpiperazine]",200,,
"CN1CCN(C(=O)c2cn(CC3CCCCC3)c3cc(F)ccc23)CC1 [Example 5T, 1-{[1-(Cyclohexylmethyl)-6-fluoro-1H-indol-3-yl]carbonyl}-4-methylpiperazine]",251,,
"CCN1C(C)CN(C(=O)c2cn(CC3CCCCC3)c3c(OC)cccc23)CC1C (centres unmarked) [Example 14, 1-{[1-(Cyclohexylmethyl)-7-methoxy-1H-indol-3-yl]carbonyl}-3,5-dimethyl-4-ethylpiperazine]",10,,< 5
"COc1cccc2c(C(=O)N3CC(C)N(C)C(C)C3)cn(CC3CCCCC3)c12 (centres unmarked) [Example 15F, 1-{[1-(cyclohexylmethyl)-7-methoxy-1H-indol-3-yl]carbonyl}-3,4,5-trimethylpiperazine]",31.6,,< 5
"COc1cccc2c(C(=O)N3CCN(C)[C@@H](C)C3)cn(CC3CCCCC3)c12 [Example 15O, (S)-1-{[1-(cyclohexylmethyl)-7-methoxy-1H-indol-3-yl]carbonyl}-3,4-dimethylpiperazine]",25.1,,< 5
"COc1cccc2c(C(=O)N3CCN4CCCC[C@H]4C3)cn(CC3CCCCC3)c12 [Example 17A, (S)-2-{[1-(Cyclohexylmethyl)-7-methoxy-1H-indol-3-yl]carbonyl}-octahydro-2H-Pyrido[1,2-a]pyrazine]",,12.6,< 5
"COc1cccc2c(C(=O)N3CCN4CCC[C@H]4C3)cn(CC3CCCCC3)c12 [Example 17C, (S)-2-{[1-(Cyclohexylmethyl)-7-methoxy-1H-indol-3-yl]carbonyl}-octahydro-2H-Pyrrolo[1,2-a]pyrazine]",,25.1,< 5
"COc1cccc2c(C(=O)N3CCN4CCCC[C@H]4C3)cn(CC3CCCC3)c12 [Example 17D, (S)-2-{[1-(Cyclopentylmethyl)-7-methoxy-1H-indol-3-yl]carbonyl}-octahydro-2H-pyrido[1,2-a]pyrazine]",,31.6,< 5
"CCN1CCN(C(=O)c2cn(CCN3CCOCC3)c3c(OC)cccc23)CC1 [Ref. 2, 1-Ethyl-4-{[7-methoxy-1-[2-(4-morpholin-yl)ethyl]-1H-indol-3-y]carbonyl}-piperazine, reference compound]",> 10000,,
"CCN1CCN(C(=O)c2cn(Cc3ccccc3)c3c(OC)cccc23)CC1 [Ref. 3., 1-{[1-Benzyl-7-methoxy-1H-indol-3-yl]carbonyl}-4-ethylpiperazine, reference compound]",> 10000,,
